Each block holds one molecule with its values, some of them ahead of it.
Legend:
Assay type in all cases: physicochemical
[1] = Quantum yield (QY) measurement, Hamamatsu C9920 PL Absolute Quantum Yield Measurement System; conditions: in PBS
Protocol: The quantum yield (QY) was determined at an excitation wavelength of 500 nm and 530 nm for inventive and commercial compounds, as shown below
QY measurements were performed in PBS using a Hamamatsu C9920 PL Absolute Quantum Yield Measurement System. The maximum absorbance at a 1 cm pathlength was set to 0.08. The lower values for the excitation at 530 nm was due to the rising emission which was not included in the counting because it was too close to the excitation light.
The quantum yield (QY) was determined at an excitation wavelength of 600 nm for inventive and commercial compounds, as shown below
QY measurements were performed in PBS using a Hamamatsu C9920 PL Absolute Quantum Yield Measurement System. The maximum absorbance at a 1 cm pathlength was set to 0.08.
The quantum yield (QY) was determined at an excitation wavelength of 710 nm for inventive and commercial compounds, as shown below.
QY measurements were performed in PBS using a Hamamatsu C9920 PL Absolute Quantum Yield Measurement System. The maximum absorbance at a 1 cm path length was set to 0.08.

[2] = Storage stability at 50° C. under argon
Protocol: (§1) The inventive compounds were evaluated for stability. All compounds were packed under argon in plastic vials. The vials sere sealed with a drying pad in an aluminium coated pouch, and then stored at 50° C. for seven days. The results of the stability study for selected compounds are shown below:
Purity was determined based on ester activity.
as §1, with “stability compared to commercial dyes.” for “stability.”, “argon as 1 mg portions” for “argon”, “14” for “seven”
The inventive compound 755 Compound 1 (isomer 1)-NHS was evaluated for stability. The compound was packed under argon in plastic vials. The vials sere sealed with a drying pad in an aluminium coated pouch, and then stored at 50° C. for 14 days. Purity was determined by HPLC before and after storage.

[3] = Absorption profile and fluorescence intensity of the free dyes; conditions: dyes compared with each other (FIG. 1, 25, 52)
[4] = Spectral properties of the dyes compared with commercially available dyes; conditions: reactive ester form of the dye
[5] = unit size 15 μg, 50° C. for 14 days, purity by HPLC
[6] = unit size 50 μg, 50° C. for 14 days, purity by HPLC
[7] = unit size 60 μg, 50° C. for 14 days, purity by HPLC
[8] = unit size 1 mg, 50° C. for 14 days, purity by HPLC
[9] = listed as 550 Compound 1(isomer 1)-NHS
[10] = unit size 15 μg, 50° C. for seven days, purity based on ester activity, listed as 550 Compound 1(isomer 1)-NHS
[11] = unit size 50 μg, 50° C. for seven days, purity based on ester activity, listed as 550 Compound 1(isomer 1)-NHS
[12] = unit size 1 mg, 50° C. for seven days, purity based on ester activity
[13] = unit size 15 μg, 50° C. for seven days, purity based on ester activity, listed as 550 Compound 1(isomer 2)-NHS
[14] = unit size 50 μg, 50° C. for seven days, purity based on ester activity, listed as 550 Compound 1(isomer 2)-NHS

QY with excitation at 710 nm [1]: 0.119
Purity at day 1 [2, 5]: 99%
Purity at day 14 [2, 5]: 96%
Purity at day 1 [2, 6]: 99%
Purity at day 14 [2, 6]: 97%
Purity at day 1 [2, 7]: 99%
Purity at day 14 [2, 7]: 97%
Purity at day 1 [2, 8]: 99%
Purity at day 14 [2, 8]: 98%
Absorption profile [3]: very similar profiles
Emission (Em) [4]: 776 nm
Excitation (Ex) [4]: 754 nm
ε [4]: 220,000 M−1cm−1
Structure (SMILES): COCCN1/C(=C/C=C/C=C/C=C/C2=[N+](CCCCCC(=O)ON3C(=O)CCC3=O)c3ccc(S(=O)(=O)[O-])cc3C2(C)CCCS(=O)(=O)O)C(C)(CCCS(=O)(=O)O)c2cc(S(=O)(=O)O)ccc21 (single isomer, unassigned) [755 Compound 1 (isomer 1)-NHS]

QY with excitation at 710 nm [1]: 0.110
Absorption profile [3]: very similar profiles
Emission (Em) [4]: 776 nm
Excitation (Ex) [4]: 754 nm
ε [4]: 220,000 M−1cm−1
Structure (SMILES): COCCN1/C(=C/C=C/C=C/C=C/C2=[N+](CCCCCC(=O)ON3C(=O)CCC3=O)c3ccc(S(=O)(=O)[O-])cc3C2(C)CCCS(=O)(=O)O)C(C)(CCCS(=O)(=O)O)c2cc(S(=O)(=O)O)ccc21 (single isomer, unassigned) [755 Compound 1 (isomer 2)-NHS]

QY excitation at 500 nm [1, 9]: 0.105
QY excitation at 530 nm [1, 9]: 0.098
Purity at day 1 [2, 10]: 95%
Purity at day 7 [2, 10]: 91%
Purity at day 1 [2, 11]: 95%
Purity at day 7 [2, 11]: 91%
Purity at day 1 [2, 12]: 96%
Purity at day 7 [2, 12]: 93%
Absorption profile [3]: very similar profiles
Structure (SMILES): COCCN1/C(=C/C=C/C2=[N+](CCCCCC(=O)ON3C(=O)CCC3=O)c3ccc(S(=O)(=O)[O-])cc3C2(C)CCCS(=O)(=O)O)C(C)(CCCS(=O)(=O)O)c2cc(S(=O)(=O)O)ccc21 (single isomer, unassigned) [550 Compound 1 (isomer 1)-NHS]

QY excitation at 500 nm [1]: 0.096
QY excitation at 530 nm [1]: 0.090
Purity at day 1 [2, 13]: 96%
Purity at day 7 [2, 13]: 94%
Purity at day 1 [2, 14]: 96%
Purity at day 7 [2, 14]: 95%
Absorption profile [3]: very similar profiles
Structure (SMILES): COCCN1/C(=C/C=C/C2=[N+](CCCCCC(=O)ON3C(=O)CCC3=O)c3ccc(S(=O)(=O)[O-])cc3C2(C)CCCS(=O)(=O)O)C(C)(CCCS(=O)(=O)O)c2cc(S(=O)(=O)O)ccc21 (single isomer, unassigned) [550 Compound 1 (isomer 2)-NHS]

From patent US10053447B2, “Fluorescent compounds” (Pierce Biotechnology, Inc, priority 2010, dated 2018)
